# Data as given in US9512156B2, “Carbon monoxide releasing rhenium compounds for medical use” (UNIVERSITY OF ZURICH, priority 2010, dated 2016).
# Key:
# [1] = system: horse skeletal myoglobin (Mb); test: Detection of CO release using the myoglobin assay (conversion of Mb to MbCO); format: biochemical; conditions: pH 7.4, 25° C.
# Protocol: Changes in the Mb spectra were recorded over time at 25° C. The methanol or DMSO content of the solution never exceeded 0.5%. […] The MbCO concentration was plotted over time and directly related to the equivalents of CO released from the compounds. The half-life of CO release from the Re compounds at different pH's was then estimated from the graphs. Control experiments were run under identical conditions but without addition of the metal complexes. All manipulations were performed under a pure N2 atmosphere in a wet box.
# The final methanol or DMSO content of the buffered aqueous solution never exceeded 0.5%. The conversion of Mb to carbon monoxide myoglobin (MbCO) was followed over time by measuring the changes in the absorption spectra of the Q band region of this protein at pH 7.4, 6.3 and 5.8 after addition of the Re^II complex.
# The amount of MbCO formed over time after addition of the Re complex to the Mb solution was calculated according to the known extinction coefficients. The MbCO concentration was directly related to the equivalents of CO released from the compounds and these were plotted as a function of time.
# [2] = Solubility in water and organic solvents; format: physicochemical
# [3] = system: neonatal rat cardiomyocyte (NRC); test: Cytotoxicity towards neonatal rat cardiomyocytes under normal conditions; format: cell-based; conditions: normal physiological conditions, up to a tested concentration of 120 μM
# Protocol: B12-CORM-2 and 4 (Scheme 3) were tested for their cytotoxic and their cytoprotective effects using the neonatal rat cardiomyocyte (NRC) cell-based model of ischemia-reperfusion injury (I/R) as previously described (Zobi et al., Inorg. Chem. 2010, 49, 7313-7322). The membrane-impermeable ReII-CORMs studied so far were non-toxic in the micromolar concentration range. To test for the possible uptake of B12-CO-RMs by cells incubation of NRCs with 30 μM of B12-CORM-2 and 4 was performed and cell culture medium samples were collected over 180 min of incubation. […] The fraction of dead cells tended to decrease in the presence of CORMs, but, due to the high variability, the differences were not statistically significant (2.7±1.7% in control vs 1.1±0.3 and 1.0±0.2 in the presence of B12-CORM-2 and B12-CORM-4 respectively).
# [4] = Deoxygenation of cell-free incubation medium; conditions: within minutes after administration, dose-dependent (FIG. 9A: 60 μM, 10 min)
# Text: Therefore, the effect of the three selected CO-RMs on oxygen consumption by NRCs was investigated.
# [5] = system: intracellular reduced glutathione (GSH) in NRCs; test: Intracellular reduced glutathione (GSH) in NRCs after ischemia and 10 min of reperfusion; format: cell-based, rat; conditions: 30 μM, 10 min after the onset of reperfusion
# Protocol: FIG. 9. Regulation of oxygen availability and the intracellular reduced glutathione content by Re-CORMs. A: Reduction in oxygen content in the incubation medium within 10 min after addition of 60 μM of 2, 6 and B12-CORM-2; N=6-8. Given are means±SEM. B: Intracellular reduced glutathione (GSH) content in NRCs exposed to 16 h of ischemia and 10 min of reperfusion in the presence or absence of CO-RMs. N=4 Data are means±SEM.
# Oxidative stress triggered by acute hyperoxygenation is a hallmark of reperfusion injury. Based on the findings presented in FIG. 9A selected CORMs may be viewed as oxygen scavengers which, when applied early on during reperfusion, may reduce the cellular oxidative damage. To test this hypothesis intracellular reduced glutathione (GSH) levels were determined in cells 10 min after the “onset of reperfusion” in the presence or absence of 30 μM 2, 6 and B12-CORM-2. […] (FIG. 9B). This acute antioxidative effect of 2 most likely reflects the ability of the intermediates formed upon CO release to react with oxygen forming ReO4^−.
# [6] = system: neonatal rat ventricular cardiomyocytes (NRCs); conditions: Zobi et al., Inorg. Chem. 2010, 49, 7313-7322; cited from earlier work
# [7] = Stability under aerobic conditions (solid, solution); format: physicochemical
SMILES,cytotoxicity towards NRCs [3],cytoprotective effects against I/R injury [6],stability as solids under aerobic conditions [7],also measured
"CC[N+](CC)(CC)CC.CC[N+](CC)(CC)CC.[Br][Re-2]([Br])([Br])[Br].[C-]#[O+].[C-]#[O+] [Compound 2, [Et4N]2[Re^IIBr4(CO)2]]",no cytotoxicity,substantial cytoprotective effects,,time to saturation of Mb with CO liberated from the compound [1]: ≤ 30 min; solubility in water [2]: well soluble in water; deoxygenation of the cell-free medium [4]: resulted in deoxygenation; intracellular reduced glutathione (GSH) levels [5]: increase
"[Br][Re]([Br])([n+]1cc[nH]c1)[n+]1cc[nH]c1.[C-]#[O+].[C-]#[O+] [Compound 6, cis-trans-[Re^II(CO)2Br2(Im)2]]",no cytotoxicity,substantial cytoprotective effects,,
"Cn1ccnc1.Cn1ccnc1.[Br][Re][Br].[C-]#[O+].[C-]#[O+] [Compound 3, [ReBr2(CO)2(MeIm)2]]",,,slowly decomposed over time,
"[Br][Re][Br].[C-]#[O+].[C-]#[O+].c1ccc2[nH]cnc2c1.c1ccc2[nH]cnc2c1 [Compound 4, [ReBr2(CO)2(BzIm)2]]",,,indefinitely stable,
"Cc1ccncc1.Cc1ccncc1.[Br][Re][Br].[C-]#[O+].[C-]#[O+] [Compound 5, [ReBr2(CO)2(4-pic)2]]",,,indefinitely stable,
